In patent publication US11236120B2, “Azithromycin derivatives with epithelial barrier enhancement properties” (EpiEndo Pharmaceuticals ehf, priority 2015, dated 2022):
In brackets after ≈: the same amount, converted by molar mass. Entries after “also recorded” stand apart in the source; their conditions may differ. Blank lines part the entries; values can stand above or below the molecule they belong to.

Legend:
[1] = system: Mycobacterium avium complex (MAC); assay: Assay 2: STC colorimetric microplate assay, comparison over the Mycobacteria studied; format: cell-based; settings: all four strains of M. avium and M. intracellulare
[2] = system: epithelial cells in vitro ALI culture; settings: cited from earlier work
[3] = Stability in human plasma; format: in vitro ADME; settings: room temperature
Procedure: Stability in Mouse and Human Plasma
The stability of the compounds in mouse and human plasma was performed using protein precipitation as sample clean-up and HPLC-MS detection. The plasma stability studies of the compounds was performed at room temperature for up to 4 hours. A stock solution of […] in DMSO was prepared for each compound. For the plasma stability samples, 100 μL of the stock solution was diluted with 3.9 mL of either mouse or human plasma to a final concentration of […]. The plasma was left to equilibrate for 10 minutes at room temperature before the first analysis. For each analyzed time point ([…]) a 100 μL aliquot of the plasma was removed and protein precipitation (PPT) was performed on the aliquot by adding 900 μL of (ACN:DMSO) 95:5. The precipitated sample was shaken for 60 seconds and then centrifuged. The supernatant was transferred to an HPLC vial and analyzed using HPLC-MS. The chromatographic signal area of the samples at the different time points were then compared against each other, by setting the initial analysis at t=0 min as 100% and then calculating the %-value for each subsequent time point.
(§1) The chromatographic separation was performed on a Waters HPLC-MS system using a 50×2.1 mm×Bridge C18 column and a gradient elution of Water with 0.1% formic acid and acetonitrile with 0.1% formic acid. The analytes were analyzed in positive electro-spray mode using the (M+H)^+ in single ion recording.

[4] = Solubility in 10 mM phosphate buffer (pH 7.4); format: physicochemical; settings: pH 7.4, aqueous buffer, kinetic from dmso stock, 60 minutes at room temperature, filtered, read-out: MTS Solubility in Buffer (pH 7.4)
Procedure: Solubility in 10 mM Phosphate Buffer (pH 7.4)
The solubility sample testing of the compounds was performed by in phosphate buffer at pH 7.4 and using HPLC-MS detection. A stock solution of […] in DMSO was prepared for each compound. For the solubility test sample, 100 μL of the stock solution was diluted with 3.9 mL of a 10 mM phosphate buffer at […] to a final concentration of […]. The buffer solution was left to stand for 60 minutes at room temperature and then filtered. The filtrate was analyzed against two calibration points of the same analyte prepared at […] using HPLC-MS. These calibration points were prepared from the same stock solution as the solubility sample by diluting it with DMSO:H2O (1:1) 1:40 and then again 1:10. The chromatographic signal area of the analyte in the solubility sample was then compared to the chromatographic signal area of the two calibration samples.
as §1

[5] = system: barrier integrity in the lungs of mice under sulphur dioxide insult; assay: Barrier integrity enhancement in the lung: HSA leakage into BAL after sulphur dioxide insult; format: in vivo
Procedure: The effect of compounds of the invention on maintenance of barrier integrity in the lungs of mice under sulphur dioxide insult was investigated.
1. 15 female mice were randomised into 3 groups of 5 mice. The three groups were: • a) Control group • b) Azithromycin treatment group • c) Investigational compound treatment group
2. The mice were pre-treated for three days with: • a) Placebo (Phosphate buffered saline—PBS) given at a dose of 10 mg/kg in an intravenous injection of 100 μl three times per week. • b) Azithromycin: given at a dose of 10 mg/kg in an intravenous injection of 100 μl three times per week. • c) The compound of Example 2: given at a dose of 10 mg/kg in an intravenous injection of 100 μl three times per week.
3. One mouse in each group was set to one side as a control. Four mice were then exposed to sulphur dioxide gas at a concentration of 200 ppm in air for a period of 60 minutes. The mice were in a cage that was inserted into a 45 L treatment box with a removable lid, a gas feed line and a gas exhaust vent. […] The gas was premixed from bottled air and bottled 200 ppm SO2 in a first box and then fed into the treatment box. The level of SO2 being fed into the treatment box can be varied by adjusting the relative flow of air and SO2 from the two source cylinders. As the sulphur dioxide concentration in this experiment was 200 ppm, it was used neat, with no additional air being mixed with it. The mice had access to food and water for the duration of the treatment.
4. 24 hours after the end of the treatment, 1 mg of human serum albumin (HSA) in 100 μl saline was injected into the tail vein of each mouse, and fluorescent dextrans (FDs) were injected into the airways. The mice were then kept sedated for 90 minutes.
5. After 90 minutes, the mice were sacrificed via exsanguination. Plasma and bronchoalveolar lavage (BAL) were collected and the lungs were processed for paraffin embedding.
6. The level of HSA in the BAL was quantified by ELISA. The ELISA test used was the one commercially available from abcam (Human Serum Albumin kit ab179887). In line with the kit manufacturer's instructions, absorbance at […] was measured. Fluorescent dextrans are quantified using a fluorescent plate reader.
The level of HSA that leaks into the lungs, as found in the BAL, is a measure of the integrity of the lung epithelial barrier.
In the placebo group, there were experimental difficulties with two of the four mice; in the Azithromycin group, there were experimental difficulties with one of the four mice; and in the investigational compound group, there were experimental difficulties with two of the four mice. Therefore, results were obtained from two mice in each of the placebo and investigational compound groups, and from three mice in the Azithromycin group.

Molecule: CC[C@H]1OC(=O)[C@H](C)[C@@H](O[C@H]2C[C@@](C)(OC)[C@@H](O)[C@H](C)O2)[C@H](C)[C@@H](O[C@@H]2O[C@H](C)C[C@H](N(C)C)[C@H]2O)[C@](C)(OC)C[C@@H](C)C(=O)[C@H](C)[C@@H](O)[C@]1(C)O [Clarithromycin]
sensitivity of the MAC strains used [1]: sensitive

Molecule: CC[C@H]1OC(=O)[C@H](C)[C@@H](O[C@H]2C[C@@](C)(OC)[C@@H](O)[C@H](C)O2)[C@H](C)[C@@H](O[C@@H]2O[C@H](C)C[C@H](N(C)C)[C@H]2O)[C@](C)(O)C[C@@H](C)C(=O)[C@H](C)[C@@H](O)[C@]1(C)O [Erythromycin]
effect on transepithelial resistance (TER) and cellular processing of tight junctions [2]: not to exhibit similar effects

Degradation in Human Plasma at RT [3]: Stable | solubility at 60 min [4]: 3.62 µM (≈ 2.52 µg/mL)
Molecule: CC[C@H]1OC(=O)[C@H](C)[C@@H](O)[C@H](C)[C@@H](O[C@@H]2O[C@H](C)C[C@H](N(C)C)[C@H]2OC(=O)c2ccccc2)[C@](C)(O)C[C@@H](C)CN(C)[C@H](C)[C@@H](O)[C@]1(C)O [Example 2]
HSA level - absorbance at 600 nm ([5]; HSA in BAL by ELISA, mice, 10 mg/kg intravenous, 200 ppm SO2 for 60 minutes): 0.373 ± 0.037 | leakage of HSA into the lung following SO2 insult ([5]; compared with control, FIG. 1): reduced compared with the control; also recorded: reduced compared with a control | HSA level - absorbance at 600 nm relative to control ([5]; relative to PBS control, mice, 10 mg/kg intravenous, 200 ppm SO2 for 60 minutes): 0.640 ± 0.058

Molecule: penicillin
effect on transepithelial resistance (TER) and cellular processing of tight junctions [2]: not to exhibit similar effects
